Experimental data taken from patent US20240285679A1, “COMPOSITIONS AND METHODS FOR VISION IMPROVEMENT” (Azura Ophthalmics Ltd., priority 2021, published 2024).

Test system: Patients with vision loss
Experiment: Clinical evaluation of vision improvement (OSDI vision assessment)
Format: in vivo
Conditions: for course of OSDI vision improvement over the follow-up: follow-up at two weeks, one month, six weeks and 3 months; for vision, change from baseline as assessed by the OSDI vision assessment: twice a week on the lower eyelid of both eyes, FIGS. 2A-2C
Description: Patients with vision loss were treated with control (N=26) or a drug formulation comprising 0.1% selenium disulfide (n=9), 0.5% selenium disulfide (n=26), or 1% selenium disulfide (n=34). Treatment consisted of twice a week application of the drug product on the lower eyelid of both eyes. Patients were followed up and their vision was assessed with an Ocular Surface Disease Index (OSDI) vision assessment after two weeks, one month, six weeks, and 3 months.

selenium disulfide
course of OSDI vision improvement over the follow-up (0.5% selenium disulfide): continued improvement from 2 weeks to three months | course of OSDI vision improvement over the follow-up (1% selenium disulfide): continued improvement from 2 weeks to three months | vision, change from baseline as assessed by the OSDI vision assessment (drug formulation comprising 0.5% selenium disulfide): improvement in vision | vision, change from baseline as assessed by the OSDI vision assessment (drug formulation comprising 1% selenium disulfide): improvement in vision
